Test results from patent publication EP0180045A2, “Benzanthrin compounds” (ABBOTT LABORATORIES, priority 1984, dated 1986).
Converted amounts (≈) assume the structure as drawn.

Key:
[1] = system: Pseudomonas aeruginosa 5007; test: MIC, agar dilution method; assay type: cell-based; conditions: Brain Heart Infusion agar, 10^5 CFU inoculum
Experimental: (§1) The antibacterial activity of the compounds of the invention against a variety of microorganisms is illustrated in Table 3. Minimum inhibitory concentrations were determined by the agar dilution method using brain heart infusion agar with 10 ^5 CFU (colony forming units) as the inoculum.

Acinetobacter CMX 669 = test: MIC, agar dilution method; assay type: cell-based; conditions: Brain Heart Infusion agar, 10^5 CFU inoculum
Experimental: as §1

[2] = system: Lactobacillus casei ATCC 7469; test: MIC, agar dilution method; assay type: cell-based; conditions: Brain Heart Infusion agar, 10^5 CFU inoculum
Experimental: as §1

[3] = system: Streptococcus pyogenes 930; test: MIC, agar dilution method; assay type: cell-based; conditions: Brain Heart Infusion agar, 10^5 CFU inoculum
Experimental: as §1

Staphylococcus aureus 45 = test: MIC, agar dilution method; assay type: cell-based; conditions: Brain Heart Infusion agar, 10^5 CFU inoculum
Experimental: as §1

Escherichia coli DC-2 = test: MIC, agar dilution method; assay type: cell-based; conditions: Brain Heart Infusion agar, 10^5 CFU inoculum
Experimental: as §1

[4] = system: Streptococcus bovis A5169; test: MIC, agar dilution method; assay type: cell-based; conditions: Brain Heart Infusion agar, 10^5 CFU inoculum
Experimental: as §1

Pseudomonas cepacia 2961 = test: MIC, agar dilution method; assay type: cell-based; conditions: Brain Heart Infusion agar, 10^5 CFU inoculum
Experimental: as §1

Escherichia coli SS = test: MIC, agar dilution method; assay type: cell-based; conditions: Brain Heart Infusion agar, 10^5 CFU inoculum
Experimental: as §1

Escherichia coli Juhl = test: MIC, agar dilution method; assay type: cell-based; conditions: Brain Heart Infusion agar, 10^5 CFU inoculum
Experimental: as §1

[5] = system: Staphylococcus epidermidis 3519; test: MIC, agar dilution method; assay type: cell-based; conditions: Brain Heart Infusion agar, 10^5 CFU inoculum
Experimental: as §1

[6] = system: Streptococcus faecium ATCC 8043; test: MIC, agar dilution method; assay type: cell-based; conditions: Brain Heart Infusion agar, 10^5 CFU inoculum
Experimental: as §1

[7] = system: Staphylococcus aureus ATCC 6538P; test: MIC, agar dilution method; assay type: cell-based; conditions: Brain Heart Infusion agar, 10^5 CFU inoculum
Experimental: as §1

[8] = system: Staphylococcus epidermidis 3519 RAR1; test: MIC, agar dilution method; assay type: cell-based; conditions: Brain Heart Infusion agar, 10^5 CFU inoculum
Experimental: as §1

[9] = system: Staphylococcus aureus A5177; test: MIC, agar dilution method; assay type: cell-based; conditions: Brain Heart Infusion agar, 10^5 CFU inoculum
Experimental: as §1

[10] = system: Enterobacter aerogenes ATCC 13048; test: MIC, agar dilution method; assay type: cell-based; conditions: Brain Heart Infusion agar, 10^5 CFU inoculum
Experimental: as §1

[11] = system: Klebsiella pneumoniae ATCC 8045; test: MIC, agar dilution method; assay type: cell-based; conditions: Brain Heart Infusion agar, 10^5 CFU inoculum
Experimental: as §1

[12] = system: Streptococcus agalactiae CMX 508; test: MIC, agar dilution method; assay type: cell-based; conditions: Brain Heart Infusion agar, 10^5 CFU inoculum
Experimental: as §1

[13] = system: Streptococcus pyogenes EES61; test: MIC, agar dilution method; assay type: cell-based; conditions: Brain Heart Infusion agar, 10^5 CFU inoculum
Experimental: as §1

Sarcina lutea 9341 = test: MIC, agar dilution method; assay type: cell-based; conditions: Brain Heart Infusion agar, 10^5 CFU inoculum
Experimental: as §1

[14] = system: Staphylococcus aureus 45 RAR2; test: MIC, agar dilution method; assay type: cell-based; conditions: Brain Heart Infusion agar, 10^5 CFU inoculum
Experimental: as §1

[15] = system: Staphylococcus aureus CMX 686b; test: MIC, agar dilution method; assay type: cell-based; conditions: Brain Heart Infusion agar, 10^5 CFU inoculum
Experimental: as §1

KB cells = test: KB antitumor test (cytotoxicity); assay type: cell-based, human; conditions: Tumor Cell 9KB; dose which inhibits growth to 50% of control growth by 3 days after drug addition
Experimental: The cytotoxic activity of the compounds of the invention can be tested by a KB antitumor test. KB cells are derived from human epidermoid carcinoma of the mouth and are cultivated on Eagel's basal medium plus 10% serum. Stock cells are fed 24 hours before testing. Test drug is added on day 0 or day 1. Results are expressed as the dose which inhibits growth to 50% of control growth by 3 days after drug addition.
When the K8 antitumor test was conducted on benzanthrins A and B, the following test data resulted: […]

SMILES | MIC [1] [µg/mL] | MIC [2] [µg/mL] | MIC [3] [µg/mL] | MIC (Staphylococcus aureus 45) [µg/mL] | MIC (Escherichia coli DC-2) [µg/mL] | MIC [4] [µg/mL] | MIC (Pseudomonas cepacia 2961) [µg/mL] | MIC (Escherichia coli SS) [µg/mL] | MIC (Escherichia coli Juhl) [µg/mL] | MIC [5] [µg/mL] | MIC [6] [µg/mL] | MIC [7] [µg/mL] | MIC [8] [µg/mL] | MIC [9] [µg/mL] | MIC [10] [µg/mL] | MIC [11] [µg/mL] | MIC [12] [µg/mL] | MIC [13] [µg/mL] | MIC [14] [µg/mL] | MIC [15] [µg/mL] | also measured
Cc1cc2cc(O)c3c(c2c(O[C@@H]2C[C@H](N(C)C)[C@@H](O)[C@@H](C)O2)c1[C@@H]1C[C@H](N(C)C)[C@@H](O)[C@H](C)O1)C(=O)c1cccc(O)c1C3=O [Benzanthrin A] | 100 (≈ 158 µM) | 0.78 (≈ 1.23 µM) | 0.2 (≈ 0.315 µM) | 3.1 (≈ 4.88 µM) | 100 (≈ 158 µM) | 0.39 (≈ 0.614 µM) | 100 (≈ 158 µM) | 3.1 (≈ 4.88 µM) | 100 (≈ 158 µM) | 3.1 (≈ 4.88 µM) | 1.56 (≈ 2.46 µM) | 3.1 (≈ 4.88 µM) | 3.1 (≈ 4.88 µM) | 3.1 (≈ 4.88 µM) | 100 (≈ 158 µM) | 100 (≈ 158 µM) | 0.78 (≈ 1.23 µM) | 1.56 (≈ 2.46 µM) | 3.1 (≈ 4.88 µM) | 3.1 (≈ 4.88 µM) | MIC (Acinetobacter CMX 669): 100 µg/mL (≈ 158 µM); MIC (Sarcina lutea 9341): 1.56 µg/mL (≈ 2.46 µM); ED50 (KB cells): 100 to 300 µg/mL
Cc1cc2cc(O)c3c(c2c(O[C@@H]2C[C@H](N(C)C)[C@H](O)[C@@H](C)O2)c1[C@@H]1C[C@H](N(C)C)[C@@H](O)[C@H](C)O1)C(=O)c1cccc(O)c1C3=O [Benzanthrin B] | 100 (≈ 158 µM) | 0.78 (≈ 1.23 µM) | 0.2 (≈ 0.315 µM) | 1.56 (≈ 2.46 µM) | 100 (≈ 158 µM) | 0.2 (≈ 0.315 µM) | 100 (≈ 158 µM) | 6.2 (≈ 9.77 µM) | 100 (≈ 158 µM) | 3.1 (≈ 4.88 µM) | 1.56 (≈ 2.46 µM) | 3.1 (≈ 4.88 µM) | 3.1 (≈ 4.88 µM) | 1.56 (≈ 2.46 µM) | 100 (≈ 158 µM) | 100 (≈ 158 µM) | 0.39 (≈ 0.614 µM) | 0.39 (≈ 0.614 µM) | 3.1 (≈ 4.88 µM) | 1.56 (≈ 2.46 µM) | ED50 (KB cells): 200 to 300 µg/mL
